Measured values: PMC9541495, “Understanding the interaction of 14‐3‐3 proteins with hDMX and hDM2: a structural and biophysical study” (The Febs Journal, 2022)
Where a SMILES comes first, the peptide text is derived from it. [ ]: non-standard residue; d: D form. pS = N[C@@H](COP(=O)(O)O)C(=O)O

Key:
14‐3‐3η [1] = biological target: T1, 14‐3‐3η (Homo sapiens, UniProt Q04917); experiment: Fluorescence anisotropy direct titration, 14‐3‐3η; assay type: binding
T1 construct: full‐length proteins were concentrated by centrifugation, rebuffered in HEPES buffer; made in house; host or cells: E. coli BL21(DE3)
T1 sequence (Q04917 1-246): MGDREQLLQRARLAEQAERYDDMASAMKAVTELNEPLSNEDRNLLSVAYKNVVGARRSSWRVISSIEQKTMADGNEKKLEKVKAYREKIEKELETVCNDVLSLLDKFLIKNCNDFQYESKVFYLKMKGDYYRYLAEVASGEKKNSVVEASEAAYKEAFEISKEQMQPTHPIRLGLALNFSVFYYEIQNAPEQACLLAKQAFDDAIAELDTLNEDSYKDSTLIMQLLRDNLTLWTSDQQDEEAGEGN
Experimental: All assays were performed in 384 well plates (each experiment was run in triplicates) and data were collected by Perkin Elmer EnVision 2013 plate reader with excitation at 480 nm (30 nm bandwidth), polarised dichroic mirror at 505 nm and emission at 535 nm (40 nm bandwidth, S and P polarised). Experiments were carried out in HBS buffer (10 mM HEPES, 150 mM NaCl, pH 7.4) + 0.1% Tween 20 + 0.1% BSA). A ½ fold dilution series was performed in the titration, with plates read after 30 min, 4 h and 20–24 h. […] Collected data were processed in Microsoft Excel using the equations below. Total intensity I and anisotropy r were calculated using Equations 1 and 2 for each well. Average anisotropy was plotted against protein concentration using OriginPro and a logistic curve was fitted to give r min and r max. Using Equation 3 anisotropy was converted into fraction bound and multiplied by peptide concentration to be fitted in Origin using Equation 5 to obtain K d values.

14‐3‐3η [2] = biological target: T1, 14‐3‐3η; experiment: Isothermal titration calorimetry, peptide into 14‐3‐3η; assay type: binding; conditions: 25 °C, HEPES pH 7.5
Experimental: (§1) […]
Moreover, such experiments provide thermodynamic data and as a label‐free method require no immobilization/functionalization of any of the binding partners. Here data were obtained by titration of the peptide into 14‐3‐3η protein (Fig. 2D,E and Fig. S7).
Isothermal titration calorimetry experiments were carried out on a MicroCal iTC200 in HBS buffer at 25°C (25 mM HEPES pH 7.5, 100 mM NaCl, 10 mM MgCl2, 0.5 mM TCEP). Peptides ([…]) in the syringe were titrated into a cell containing 14‐3‐3η ([…]). Data were fitted using MICROCAL software (Northampton, MA, USA) to give binding constant (K d), enthalpy (ΔH), entropy (ΔS) and binding stoichiometry (n).

14‐3‐3η [3] = biological target: T1, 14‐3‐3η; experiment: Surface plasmon resonance on immobilized 14‐3‐3η; assay type: binding; conditions: multicycle kinetic format, Langmuir model, 25 °C
Experimental: as §1
Experiments were performed at 25 °C using a Biacore T200 instrument (GE Healthcare, Buckinghamshire, UK). For immobilization, the running buffer was HBS buffer (HEPES, NaCl, Tween‐20, pH 7.4). 14‐3‐3η was immobilized on an NTA sensor chip (Series S Sensor Chip GE Healthcare) using NTA reagent and Biacore Amine Coupling Kit. Briefly, 14‐3‐3η was diluted to 0.2 mg·mL^−1 and 200 µL was injected over a chip surface that had been activated with an injection of Ni^2+, followed by 140 µL of 1 : 1 NHS/EDC. A 30 µL of 0.5 M ethanolamine was then injected to cap the excess free amine groups. […] Then, 20 µL of these solutions were injected over a 14‐3‐3η immobilized surface for 1 min at the […] flow rate, followed by a 4 min regeneration period with HBS buffer. Kinetics and the binding affinity were calculated using the BIACORE evaluation software (Buckinghamshire, UK). Standard dose–response curves were fitted by plotting RUs against the peptide concentration.

14‐3‐3η [4] = biological target: T1, 14‐3‐3η; experiment: Analytical ultracentrifugation (sedimentation velocity) of 14‐3‐3η with peptide; conditions: AUC‐SV; 14 μM 14‐3‐3η, protein : peptide 1 : 1 and 1 : 0.5; 10 mM HEPES, 150 mM NaCl, pH 7.4; 25 °C
From the text: The 1 : 1 stoichiometry between the doubly phosphorylated peptides and 14‐3‐3 contrasts with previously reported work, although it may be that the length and/or accessible conformation of the hDMX and hDM2 peptides are incompatible with the simultaneous engagement of both 14‐3‐3 protomers in the dimeric structure. To further explore this behaviour and understand the basis of cooperativity and affinity enhancement we performed additional experiments. To exclude the possible formation of higher‐order oligomers (e.g. 14‐3‐3 tetramers held together by two peptides bridging two dimers), an analytical ultracentrifugation experiment was performed. The 14‐3‐3η (at the concentration of 14 μM, approximately corresponding to the second binding events observed in FA, Fig. 2C) and hDMX335‐373 ^pSer342/pSer367 peptide in two different concentration ratios (1 : 1 and 1 : 0.5, protein vs. peptide) were analysed. […] The second binding event observed only in fluorescence anisotropy experiments, may represent a further non‐specific binding event or an interaction linked to 14‐3‐3 dimerization and will be investigated in future work.
AUC‐SV experiments were performed using a Beckman Coulter Optima XL‐I ultracentrifuge. […] The diffusion‐deconvoluted sedimentation coefficient distributions c(s) were calculated using the SEDFIT program (Bethesda, MD, USA). […]

all isoforms of 14‐3‐3 = experiment: Fluorescence anisotropy assays with all isoforms of 14‐3‐3 (result in words); assay type: binding, human; conditions: FAM tracer peptide 50 nM, 0.1 nM - 300 µM protein, 10 mM HEPES, 150 mM NaCl, 0.1% Tween 20, 0.1% BSA pH 7.4; n = 3
From the text: 14‐3‐3 proteins were titrated against a constant concentration of the tracer resulting in an increase of anisotropy upon engaging 14‐3‐3 proteins (Fig. 2A–C for 14‐3‐3 binding hDMX sequences and Figs S4–S6, for 14‐3‐3 binding hDM2 sequences, non‐binding sequence, and unphosphorylated controls). A noteworthy feature of the data is that different maximum anisotropy levels were observed between hDMX or hDM2 peptides and 14‐3‐3 isoforms, indicating different diffusion properties of the fluorophore when bound to the different 14‐3‐3 isoforms. […]
All assays were performed in 384 well plates (each experiment was run in triplicates) and data were collected by Perkin Elmer EnVision […] plate reader with excitation at 480 nm (30 nm bandwidth), polarised dichroic mirror at 505 nm and emission at 535 nm (40 nm bandwidth, S and P polarised). […] A ½ fold dilution series was performed in the titration, with plates read after 30 min, 4 h and 20–24 h. […] Total intensity I and anisotropy r were calculated using Equations 1 and 2 for each well. […]
Figure S4. Fluorescence anisotropy assays for the hDM2 peptides. […]
Figure S5. Fluorescence anisotropy assays for the hDMX144-158pThr151 peptide with all isoforms of 14-3-3. […]

Molecule: CC[C@H](C)[C@H](NC(=O)[C@H](CC(=O)O)NC(=O)[C@H](CO)NC(=O)[C@@H](NC(=O)[C@H](COP(=O)(O)O)NC(=O)[C@H](CC(C)C)NC(=O)[C@H](CO)NC(=O)[C@H](Cc1c[nH]cn1)NC(=O)[C@@H](NC(=O)[C@H](CC(C)C)NC(=O)[C@H](CCCCN)NC(=O)[C@H](CO)NC(C)=O)[C@@H](C)O)[C@@H](C)O)C(=O)N[C@H](C(=O)N[C@@H](C)C(=O)N[C@H](C(=O)N1CCC[C@H]1C(=O)N[C@@H](CCC(=O)O)C(=O)N[C@@H](CCCCN)C(=O)N[C@@H](CCC(=O)O)C(=O)N[C@@H](CC(N)=O)C(=O)N[C@@H](CCC(=O)O)C(=O)NCC(=O)N[C@@H](CC(N)=O)C(=O)N[C@@H](CC(=O)O)C(=O)N[C@H](C(=O)N1CCC[C@H]1C(=O)N[C@@H](CC(=O)O)C(=O)N[C@@H](CS)C(=O)N[C@@H](CCCNC(=N)N)C(=O)N[C@@H](CCCNC(=N)N)C(=O)N[C@H](C(=O)N[C@H](C(=O)N[C@@H](COP(=O)(O)O)C(=O)N[C@@H](C)C(=O)N1CCC[C@H]1C(=O)N[C@H](C(=O)N[C@H](C(=O)N[C@@H](CCCNC(=N)N)C(=O)N1CCC[C@H]1C(N)=O)C(C)C)C(C)C)[C@@H](C)CC)[C@@H](C)O)C(C)C)[C@@H](C)CC)[C@@H](C)O [hDMX335‐373 ^pSer342/pSer367]
- fold higher affinity Kd1 of doubly phosphorylated peptide compared to singly phosphorylated peptide (14‐3‐3η [1]; FA, 14‐3‐3η, compared to hDM2_160‐171 ^pSer166 (hDM2 peptide) or hDMX361‐374 ^pSer367 (hDMX peptide)): 3 fold
- ∆G (ITC), 14‐3‐3η (14‐3‐3η [2]; acetyl labelled peptides): -44.7 kJ/mol
- n (binding stoichiometry, ITC) (14‐3‐3η [2]; acetyl peptides, 14‐3‐3η): 0.94
- ‐T∆S (ITC) (14‐3‐3η [2]; acetyl peptides, 14‐3‐3η): -22.6 kJ/mol
- ∆H (ITC) (14‐3‐3η [2]; acetyl peptides, 14‐3‐3η): -22.1 ± 0.7 kJ/mol
- koff (14‐3‐3η [3]): 0.0048 s⁻¹
- kon (14‐3‐3η [3]): 1.51e+06 M⁻¹ s⁻¹
- sedimentation coefficient of 14‐3‐3η with peptide vs protein alone (in words) (14‐3‐3η [4]): remained unchanged

Molecule: CC[C@H](C)[C@H](NC(=O)[C@@H](NC(=O)[C@H](CCCNC(=N)N)NC(=O)[C@H](CCCNC(=N)N)NC(=O)[C@H](CS)NC(=O)[C@H](CC(=O)O)NC(C)=O)[C@@H](C)O)C(=O)N[C@@H](COP(=O)(O)O)C(=O)N[C@@H](C)C(=O)N1CCC[C@H]1C(=O)N[C@H](C(=O)N[C@H](C(=O)N[C@@H](CCCNC(=N)N)C(=O)N1CCC[C@H]1C(=O)N[C@@H](CCCCN)C(N)=O)C(C)C)C(C)C [hDMX361‐374 ^pSer367] (Ac-DCRRTI[pS]APVVRPK-NH2)
- Kd (14‐3‐3η [1]; FA direct titration, FAM‐Ahx tracer peptide 50 nM, pH 7.4, 1:1 fit, n = 3, read-out: K d, 14‐3‐3η): 0.0988 ± 0.0046 µM
- koff (14‐3‐3η [3]): 0.121 s⁻¹
- kon (14‐3‐3η [3]): 389000 M⁻¹ s⁻¹

Molecule: X‐STSRKRT pT EDDIPTL‐NH2 [hDMX144‐158 ^pThr151, hDMX‐derived phosphopeptide, N‐terminal acetyl (ITC, SPR, crystallography) or FAM‐Ahx (FA tracer), C‐terminal amide]
- FA response / affinity with 14‐3‐3 proteins, all isoforms (in words) (all isoforms of 14‐3‐3): no response
